Test results as given in patent US12258327B2, “5-membered heteroaryl-containing aminopyridine compounds as EGFR inhibitors” (YUHAN CORPORATION, priority 2021, dated 2025).
Read-outs that look alike come from different tables or passages of the source.

Assays:
EGFR L858R/T790M/C797S = EGFR L858R/T790M/C797S (Homo sapiens, UniProt P00533, C797S/L858R/T790M); assay: Biochemical EGFR kinase assay (Lance Ultra TR-FRET), triple mutant L858R/T790M/C797S
Summary of the method: (§1)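 Step 1: compound in kinase buffer, 0.003–10 μM. Step 2: kinase reaction 1 h at room temperature. Step 4: TR-FRET read at 615/665 nm; IC50 calculated.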

EGFR wildtype (WT) = EGFR wildtype (WT) (Homo sapiens, UniProt P00533); assay: Biochemical EGFR kinase assay (Lance Ultra TR-FRET), wildtype
Chain of EGFR wildtype (WT) (P00533 25-1210): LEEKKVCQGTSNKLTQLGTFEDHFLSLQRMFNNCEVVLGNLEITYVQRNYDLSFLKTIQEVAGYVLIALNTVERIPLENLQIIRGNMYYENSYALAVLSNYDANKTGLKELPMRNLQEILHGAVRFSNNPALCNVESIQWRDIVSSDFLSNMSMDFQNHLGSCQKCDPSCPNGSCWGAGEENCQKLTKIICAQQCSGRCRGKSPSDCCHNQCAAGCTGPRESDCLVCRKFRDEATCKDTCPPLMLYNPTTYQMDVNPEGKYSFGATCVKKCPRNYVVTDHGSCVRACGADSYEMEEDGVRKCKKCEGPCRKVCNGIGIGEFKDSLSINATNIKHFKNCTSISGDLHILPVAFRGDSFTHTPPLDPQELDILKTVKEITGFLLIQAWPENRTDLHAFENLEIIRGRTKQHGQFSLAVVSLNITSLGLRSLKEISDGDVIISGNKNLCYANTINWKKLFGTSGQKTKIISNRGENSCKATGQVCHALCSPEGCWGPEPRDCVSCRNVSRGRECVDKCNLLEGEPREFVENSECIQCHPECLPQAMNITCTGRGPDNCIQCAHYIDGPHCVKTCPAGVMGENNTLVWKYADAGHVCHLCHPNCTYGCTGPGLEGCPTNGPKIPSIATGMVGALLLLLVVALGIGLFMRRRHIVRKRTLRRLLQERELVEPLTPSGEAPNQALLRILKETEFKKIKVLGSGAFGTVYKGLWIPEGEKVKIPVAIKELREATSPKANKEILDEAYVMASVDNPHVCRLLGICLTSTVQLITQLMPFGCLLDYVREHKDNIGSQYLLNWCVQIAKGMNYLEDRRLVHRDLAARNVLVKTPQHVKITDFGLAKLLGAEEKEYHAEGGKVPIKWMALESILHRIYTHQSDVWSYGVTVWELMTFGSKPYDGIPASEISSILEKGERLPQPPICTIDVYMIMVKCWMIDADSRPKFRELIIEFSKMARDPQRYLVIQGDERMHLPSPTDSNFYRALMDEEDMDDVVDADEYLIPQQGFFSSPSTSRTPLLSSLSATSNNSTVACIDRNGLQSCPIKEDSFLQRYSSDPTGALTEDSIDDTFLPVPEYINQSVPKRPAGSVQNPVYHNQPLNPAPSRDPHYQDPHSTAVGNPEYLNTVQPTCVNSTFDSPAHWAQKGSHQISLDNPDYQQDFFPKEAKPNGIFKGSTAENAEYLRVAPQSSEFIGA
Summary of the method: as §1

EGFR del19/T790M/C797S = EGFR del19/T790M/C797S (Homo sapiens, UniProt P00533, C797S/DEL746-750/T790M); assay: Biochemical EGFR kinase assay (Lance Ultra TR-FRET), triple mutant del19/T790M/C797S
Chain of EGFR del19/T790M/C797S (P00533 with tags, fused parts or gaps DEL746-750/T790M/C797S): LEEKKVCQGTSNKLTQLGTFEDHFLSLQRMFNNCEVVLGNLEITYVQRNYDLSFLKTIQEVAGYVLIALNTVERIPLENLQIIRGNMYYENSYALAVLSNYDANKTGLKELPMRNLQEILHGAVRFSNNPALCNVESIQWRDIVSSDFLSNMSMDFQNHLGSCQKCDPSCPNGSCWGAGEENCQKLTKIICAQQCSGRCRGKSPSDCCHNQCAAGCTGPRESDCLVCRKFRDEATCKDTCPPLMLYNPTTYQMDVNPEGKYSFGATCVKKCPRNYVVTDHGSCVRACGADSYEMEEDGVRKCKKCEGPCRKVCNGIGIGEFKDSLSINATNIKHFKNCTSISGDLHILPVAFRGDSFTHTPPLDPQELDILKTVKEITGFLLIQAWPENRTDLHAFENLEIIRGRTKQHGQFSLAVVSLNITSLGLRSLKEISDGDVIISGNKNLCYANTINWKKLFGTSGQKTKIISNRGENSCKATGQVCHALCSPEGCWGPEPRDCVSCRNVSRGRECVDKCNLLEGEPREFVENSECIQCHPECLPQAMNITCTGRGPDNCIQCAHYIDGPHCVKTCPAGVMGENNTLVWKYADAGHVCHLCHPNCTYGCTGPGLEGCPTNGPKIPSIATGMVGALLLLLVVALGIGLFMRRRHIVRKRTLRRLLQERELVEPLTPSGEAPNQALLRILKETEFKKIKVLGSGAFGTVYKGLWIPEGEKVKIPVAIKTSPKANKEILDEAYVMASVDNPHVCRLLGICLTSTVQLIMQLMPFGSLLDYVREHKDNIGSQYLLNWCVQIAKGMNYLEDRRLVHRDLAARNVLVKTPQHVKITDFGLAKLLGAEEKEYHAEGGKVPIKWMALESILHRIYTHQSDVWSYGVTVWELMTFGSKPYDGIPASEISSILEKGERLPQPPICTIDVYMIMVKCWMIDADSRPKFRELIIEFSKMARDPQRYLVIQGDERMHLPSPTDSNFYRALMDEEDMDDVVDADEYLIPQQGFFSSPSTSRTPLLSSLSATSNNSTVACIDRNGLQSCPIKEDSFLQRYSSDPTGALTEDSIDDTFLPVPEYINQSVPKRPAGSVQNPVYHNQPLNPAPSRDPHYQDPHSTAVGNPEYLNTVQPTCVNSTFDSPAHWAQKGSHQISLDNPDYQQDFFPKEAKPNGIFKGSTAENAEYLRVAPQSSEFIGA
Summary of the method: as §1

EGFR del19/C797S = EGFR del19/C797S (Homo sapiens, UniProt P00533, C797S/DEL746-750); assay: Biochemical EGFR kinase assay (Lance Ultra TR-FRET), double mutant del19/C797S
Summary of the method: as §1

EGFR L858R/C797S = EGFR L858R/C797S (Homo sapiens, UniProt P00533, C797S/L858R); assay: Biochemical EGFR kinase assay (Lance Ultra TR-FRET), double mutant L858R/C797S
Chain of EGFR L858R/C797S (P00533 25-1210 C797S/L858R): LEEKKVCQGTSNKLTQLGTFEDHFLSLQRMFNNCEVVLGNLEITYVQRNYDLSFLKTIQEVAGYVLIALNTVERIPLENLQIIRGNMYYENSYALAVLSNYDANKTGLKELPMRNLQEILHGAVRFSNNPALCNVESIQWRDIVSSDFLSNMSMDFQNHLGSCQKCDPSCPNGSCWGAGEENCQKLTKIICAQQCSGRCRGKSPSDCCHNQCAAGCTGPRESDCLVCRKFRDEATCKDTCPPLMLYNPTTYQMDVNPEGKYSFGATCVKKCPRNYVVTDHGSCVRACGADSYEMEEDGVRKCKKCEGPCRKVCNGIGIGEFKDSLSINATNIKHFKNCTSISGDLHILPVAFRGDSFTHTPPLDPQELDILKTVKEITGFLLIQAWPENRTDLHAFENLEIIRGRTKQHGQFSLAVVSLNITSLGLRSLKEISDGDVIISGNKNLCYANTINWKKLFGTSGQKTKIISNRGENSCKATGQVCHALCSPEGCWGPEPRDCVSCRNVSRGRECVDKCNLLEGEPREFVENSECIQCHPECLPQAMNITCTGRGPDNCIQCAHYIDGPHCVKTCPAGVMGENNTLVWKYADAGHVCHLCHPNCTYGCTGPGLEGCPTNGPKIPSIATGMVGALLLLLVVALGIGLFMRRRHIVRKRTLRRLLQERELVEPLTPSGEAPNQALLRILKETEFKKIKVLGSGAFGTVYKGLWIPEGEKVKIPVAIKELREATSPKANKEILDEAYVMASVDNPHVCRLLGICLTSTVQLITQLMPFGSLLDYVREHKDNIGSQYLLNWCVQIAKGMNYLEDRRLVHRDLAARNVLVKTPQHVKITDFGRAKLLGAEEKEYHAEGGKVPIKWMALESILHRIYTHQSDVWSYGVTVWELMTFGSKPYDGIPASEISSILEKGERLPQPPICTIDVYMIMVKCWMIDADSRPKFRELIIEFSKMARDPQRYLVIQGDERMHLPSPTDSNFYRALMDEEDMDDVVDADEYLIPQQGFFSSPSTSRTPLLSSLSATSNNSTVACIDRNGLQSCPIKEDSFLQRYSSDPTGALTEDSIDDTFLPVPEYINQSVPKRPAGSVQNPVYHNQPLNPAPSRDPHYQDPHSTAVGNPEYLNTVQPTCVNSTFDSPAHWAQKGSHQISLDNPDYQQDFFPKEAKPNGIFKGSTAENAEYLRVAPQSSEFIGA
Summary of the method: as §1

[1] = Km ATP, read-out: IC50 L858R/T790M/C797S (nM) Km ATP
[2] = Km ATP, read-out: IC50 WT (nM) Km ATP
[3] = Km ATP, read-out: IC50 del19/T790M/C797S (nM) Km ATP
[4] = Km ATP, read-out: IC50 del19/C797S (nM) Km ATP
[5] = Km ATP, read-out: IC50 L858R/C797S (nM) Km ATP
[6] = IC50 L858R/T790M/C797S (nM) 100 μM ATP, 100 μM ATP
[7] = IC50 WT (nM) 100 μM ATP, 100 μM ATP
[8] = IC50 del19/T790M/C797S (nM) 100 μM ATP, 100 μM ATP
[9] = IC50 del19/C797S (nM) 100 μM ATP, 100 μM ATP
[10] = IC50 L858R/C797S (nM) 100 μM ATP, 100 μM ATP

Chain of EGFR L858R/T790M/C797S (P00533 25-1210 T790M/C797S/L858R): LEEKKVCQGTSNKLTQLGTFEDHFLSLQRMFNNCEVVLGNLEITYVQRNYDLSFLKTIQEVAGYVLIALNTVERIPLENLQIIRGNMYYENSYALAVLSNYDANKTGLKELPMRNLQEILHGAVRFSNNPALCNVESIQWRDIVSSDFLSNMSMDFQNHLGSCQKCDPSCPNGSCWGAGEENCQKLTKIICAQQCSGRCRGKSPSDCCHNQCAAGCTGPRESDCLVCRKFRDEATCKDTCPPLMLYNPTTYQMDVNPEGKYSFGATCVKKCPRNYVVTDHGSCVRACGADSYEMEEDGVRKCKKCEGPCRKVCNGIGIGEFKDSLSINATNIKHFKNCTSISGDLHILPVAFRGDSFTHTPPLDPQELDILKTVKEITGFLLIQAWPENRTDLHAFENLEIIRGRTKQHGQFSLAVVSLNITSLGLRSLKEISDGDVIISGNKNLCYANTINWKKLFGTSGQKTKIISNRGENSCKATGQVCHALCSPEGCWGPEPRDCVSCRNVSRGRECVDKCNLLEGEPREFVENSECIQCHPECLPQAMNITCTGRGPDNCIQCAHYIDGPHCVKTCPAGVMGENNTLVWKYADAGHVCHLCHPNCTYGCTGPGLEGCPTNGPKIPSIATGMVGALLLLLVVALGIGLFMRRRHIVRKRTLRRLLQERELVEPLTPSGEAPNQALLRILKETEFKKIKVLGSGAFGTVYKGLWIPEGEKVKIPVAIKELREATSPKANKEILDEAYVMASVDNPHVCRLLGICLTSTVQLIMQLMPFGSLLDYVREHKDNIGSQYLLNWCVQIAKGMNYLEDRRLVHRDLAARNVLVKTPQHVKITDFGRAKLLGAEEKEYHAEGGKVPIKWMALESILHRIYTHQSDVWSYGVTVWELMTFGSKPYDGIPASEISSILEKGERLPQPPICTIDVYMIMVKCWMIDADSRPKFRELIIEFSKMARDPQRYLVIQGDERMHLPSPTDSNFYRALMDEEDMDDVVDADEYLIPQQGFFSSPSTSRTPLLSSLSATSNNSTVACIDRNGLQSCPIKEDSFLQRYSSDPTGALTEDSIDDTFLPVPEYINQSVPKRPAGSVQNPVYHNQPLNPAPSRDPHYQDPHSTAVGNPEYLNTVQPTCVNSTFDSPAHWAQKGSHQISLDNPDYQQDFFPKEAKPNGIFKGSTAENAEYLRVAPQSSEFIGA

Compound | IC50 (EGFR L858R/T790M/C797S; [1]) | IC50 (EGFR wildtype (WT); [2]) | IC50 (EGFR del19/T790M/C797S; [3]) | IC50 (EGFR del19/C797S; [4]) | IC50 (EGFR L858R/C797S; [5]) | IC50 (EGFR L858R/T790M/C797S; [6]) | IC50 (EGFR wildtype (WT); [7]) | IC50 (EGFR del19/T790M/C797S; [8]) | IC50 (EGFR del19/C797S; [9]) | IC50 (EGFR L858R/C797S; [10])
Cc1cn(-c2cnc(Nc3ccnc(-c4cnn(S(=O)(=O)C5CC5)c4)n3)cc2N[C@H]2CC[C@@](C)(O)CC2)nc1C(F)(F)F [Example 186, (1s,4s)-4-((2-((2-(1-(Cyclopropylsulfonyl)-1H-pyrazol-4-yl)pyrimidin-4-yl)amino)-5-(4-methyl-3-(trifluoromethyl)-1H-pyrazol-1-yl)pyridin-4-yl)amino)-1-methylcyclohexan-1-ol] | 0.4 nM | 166 nM | 1.3 nM | 32.9 nM | 30.4 nM | – | – | – | – | –
O=S(=O)(C1CC1)n1cc(-c2nccc(Nc3cc(N[C@H]4CC[C@](O)(CO)CC4)c(-c4ccn(C(F)F)n4)cn3)n2)cn1 [Example 188, (1s,4s)-4-((2-((2-(1-(Cyclopropylsulfonyl)-1H-pyrazol-4-yl)pyrimidin-4-yl)amino)-5-(1-(difluoromethyl)-1H-pyrazol-3-yl)pyridin-4-yl)amino)-1-(hydroxymethyl)cyclohexan-1-ol] | 0.1 nM | 6.1 nM | 0.3 nM | 0.3 nM | 1.1 nM | 0.2 nM | > 10000 nM | 0.2 nM | 0.3 nM | 7.8 nM
O=S(=O)(C1CC1)n1cc(-c2nccc(Nc3cc(NC[C@H]4C[C@H](CO)C4)c(-c4ccn(C(F)F)n4)cn3)n2)cn1 [Example 189, ((1r,3r)-3-(((2-((2-(1-(Cyclopropylsulfonyl)-1H-pyrazol-4-yl)pyrimidin-4-yl)amino)-5-(1-(difluoromethyl)-1H-pyrazol-3-yl)pyridin-4-yl)amino)methyl)cyclobutyl)methanol] | 0.3 nM | 20.1 nM | 0.5 nM | 1.2 nM | 3.1 nM | 0.2 nM | > 10000 nM | 0.4 nM | 1.8 nM | 27.1 nM
O=S(=O)(C1CC1)n1cc(-c2nccc(Nc3cc(NC4CCC(F)(CO)CC4)c(-c4ccn(C(F)F)n4)cn3)n2)cn1 (centres unmarked) [Example 190, (4-((2-((2-(1-(Cyclopropylsulfonyl)-1H-pyrazol-4-yl)pyrimidin-4-yl)amino)-5-(1-(difluoromethyl)-1H-pyrazol-3-yl)pyridin-4-yl)amino)-1-fluorocyclohexyl)methanol] | 0.6 nM | 109 nM | 0.9 nM | 9.1 nM | 6.7 nM | 1.8 nM | > 10000 nM | 1.2 nM | 11.9 nM | 119 nM
O=S(=O)(C1CC1)n1cc(-c2nccc(Nc3cc(NC4CCCC(NCC(F)F)C4)c(-c4ccn(C(F)F)n4)cn3)n2)cn1 (centres unmarked) [Example 191, N^2-(2-(1-(Cyclopropylsulfonyl)-1H-pyrazol-4-yl)pyrimidin-4-yl)-N^4-(3-((2,2-difluoroethyl)amino)cyclohexyl)-5-(1-(difluoromethyl)-1H-pyrazol-3-yl)pyridine-2,4-diamine] | – | – | – | – | – | 2.4 nM | > 10000 nM | 1.7 nM | 35.5 nM | 1400 nM
CNC[C@H]1CC[C@H](CNc2cc(Nc3ccnc(-c4cnn(S(=O)(=O)C5CC5)c4)n3)ncc2-c2ccn(C(F)F)n2)CC1 [Example 192, N^2-(2-(1-(Cyclopropylsulfonyl)-1H-pyrazol-4-yl)pyrimidin-4-yl)-5-(1-(difluoromethyl)-1H-pyrazol-3-yl)-N^4-(((1r,4r)-4-((methylamino)methyl)cyclohexyl)methyl)pyridine-2,4-diamine] | 0.1 nM | 1.1 nM | 0.2 nM | 0.3 nM | 0.4 nM | 0.2 nM | 384 nM | 0.4 nM | 0.7 nM | 3.7 nM
CN[C@H]1CC[C@H](CNc2cc(Nc3ccnc(-c4cnn(S(=O)(=O)C5CC5)c4)n3)ncc2-c2ccn(C(F)F)n2)CC1 [Example 193, N^2-(2-(1-(Cyclopropylsulfonyl)-1H-pyrazol-4-yl)pyrimidin-4-yl)-5-(1-(difluoromethyl)-1H-pyrazol-3-yl)-N^4-(((1r,4r)-4-(methylamino)cyclohexyl)methyl)pyridine-2,4-diamine] | 0.1 nM | 4 nM | 0.2 nM | 0.3 nM | 1 nM | 0.1 nM | 2050 nM | 0.2 nM | 0.7 nM | 7.2 nM

Second part, the molecule after the results:

IC50 (EGFR L858R/T790M/C797S; [1]) | IC50 (EGFR wildtype (WT); [2]) | IC50 (EGFR del19/T790M/C797S; [3]) | IC50 (EGFR del19/C797S; [4]) | IC50 (EGFR L858R/C797S; [5]) | IC50 (EGFR L858R/T790M/C797S; [6]) | IC50 (EGFR wildtype (WT); [7]) | IC50 (EGFR del19/T790M/C797S; [8]) | IC50 (EGFR del19/C797S; [9]) | IC50 (EGFR L858R/C797S; [10]) | Compound
0.1 nM | 19.9 nM | 0.3 nM | 4.4 nM | 5.8 nM | 0.6 nM | > 10000 nM | 0.2 nM | 7.5 nM | 32.1 nM | O=S(=O)(C1CC1)n1cc(-c2nccc(Nc3cc(NC4CCCC(NCCF)C4)c(-c4ccn(C(F)F)n4)cn3)n2)cn1 (centres unmarked) [Example 194, N^2-(2-(1-(Cyclopropylsulfonyl)-1H-pyrazol-4-yl)pyrimidin-4-yl)-5-(1-(difluoromethyl)-1H-pyrazol-3-yl)-N^4-(3-((2-fluoroethyl)amino)cyclohexyl)pyridine-2,4-diamine]
0.04 nM | 0.3 nM | 0.1 nM | 0.2 nM | 0.1 nM | 0.1 nM | 145 nM | 0.1 nM | 0.3 nM | 0.8 nM | CN(C)C[C@H]1CC[C@@H](Nc2cc(Nc3ccnc(-c4cnn(S(=O)(=O)C5CC5)c4)n3)ncc2-c2ccn(C(F)F)n2)CC1 [Example 195, N^2-(2-(1-(Cyclopropylsulfonyl)-1H-pyrazol-4-yl)pyrimidin-4-yl)-5-(1-(difluoromethyl)-1H-pyrazol-3-yl)-N^4-((1s,4s)-4-((dimethylamino)methyl)cyclohexyl)pyridine-2,4-diamine]
– | – | – | – | – | 13.3 nM | > 10000 nM | 3.7 nM | 131 nM | 9100 nM | O=S(=O)(C1CC1)n1cc(-c2nccc(Nc3cc(N[C@H]4CC[C@H](CO)OC4)c(-c4ccn(C(F)F)n4)cn3)n2)cn1 [Example 196, ((2R,5S)-5-((2-((2-(1-(Cyclopropylsulfonyl)-1H-pyrazol-4-yl)pyrimidin-4-yl)amino)-5-(1-(difluoromethyl)-1H-pyrazol-3-yl)pyridin-4-yl)amino)tetrahydro-2H-pyran-2-yl)methanol]
0.1 nM | 7.9 nM | 0.1 nM | 1.1 nM | 2.1 nM | 0.3 nM | > 10000 nM | 0.2 nM | 2.2 nM | 70 nM | O=S(=O)(C1CC1)n1cc(-c2nccc(Nc3cc(NCC4(CO)COC4)c(-c4ccn(C(F)F)n4)cn3)n2)cn1 [Example 197, (3-(((2-((2-(1-(Cyclopropylsulfonyl)-1H-pyrazol-4-yl)pyrimidin-4-yl)amino)-5-(1-(difluoromethyl)-1H-pyrazol-3-yl)pyridin-4-yl)amino)methyl)oxetan-3-yl)methanol]
0.1 nM | 84.7 nM | – | 0.7 nM | 4.2 nM | 3.3 nM | > 10000 nM | 0.3 nM | 2.2 nM | 3040 nM | O=S(=O)(C1CC1)n1cc(-c2nccc(Nc3cc(N[C@H]4CC[C@H](CO)CC4)c(-c4ccn(C(F)F)n4)cn3)n2)cn1 [Example 198, ((1r,4r)-4-((2-((2-(1-(Cyclopropylsulfonyl)-1H-pyrazol-4-yl)pyrimidin-4-yl)amino)-5-(1-(difluoromethyl)-1H-pyrazol-3-yl)pyridin-4-yl)amino)cyclohexyl)methanol]
0.4 nM | 2850 nM | 0.6 nM | 13.5 nM | 15.4 nM | 2.1 nM | > 10000 nM | 1 nM | – | 293 nM | O=S(=O)(C1CC1)n1cc(-c2nccc(Nc3cc(N[C@H]4CC[C@](O)(C(F)F)CC4)c(-c4ccn(C(F)F)n4)cn3)n2)cn1 [Example 200, (1s,4s)-4-((2-((2-(1-(Cyclopropylsulfonyl)-1H-pyrazol-4-yl)pyrimidin-4-yl)amino)-5-(1-(difluoromethyl)-1H-pyrazol-3-yl)pyridin-4-yl)amino)-1-(difluoromethyl)cyclohexan-1-ol]
0.3 nM | – | 0.8 nM | 1.1 nM | 0.7 nM | 0.5 nM | > 10000 nM | 0.5 nM | 2.1 nM | 2.9 nM | CN(C)C(=O)[C@H]1CC[C@@H](Nc2cc(Nc3ccnc(-c4cnn(S(=O)(=O)C5CC5)c4)n3)ncc2-c2ccn(C(F)F)n2)CC1 [Example 201, (1s,4s)-4-((2-((2-(1-(Cyclopropylsulfonyl)-1H-pyrazol-4-yl)pyrimidin-4-yl)amino)-5-(1-(difluoromethyl)-1H-pyrazol-3-yl)pyridin-4-yl)amino)-N,N-dimethylcyclohexane-1-carboxamide]
